Data published in US20210137118A1, “NEW USES OF 9-(3-DEOXY-BETA-D-RIBOFURANOSYL)ADENINE” (Agroquimicos De Levante, S.A., priority 2018, published 2021).

Key:
Meloidogyne incognita = test: In vitro test on M. incognita eggs (egg hatching, petri dishes); conditions: tested concentration 5%
Halyomorpha halys = test: Laboratory tests on heteroptera; type: in vivo
Anacridium aegyptium = test: Laboratory tests on orthoptera; type: in vivo

## Nc1ncnc2c1ncn2[C@@H]1O[C@H](CO)C[C@H]1O [9-(3-Deoxy-β-D-ribofuranosyl)adenine]
Meloidogyne incognita
  action on free larvae included in the ovisacs: good action
  effect on egg embryogenesis: inhibition of egg embryogenesis
Halyomorpha halys
  effect on adult forms of heteroptera (Halyomorpha halys): no significant effect
Anacridium aegyptium
  effect on adult forms of orthoptera (Anacridium aegyptium): no significant effect
